Source: US12590953B2, “Methods for screening cereblon modifying compounds” (CELGENE CORPORATION, priority 2018, dated 2026)
Peptide text beside a SMILES is read from it. * marks the point of attachment. Cbz = O=C(OCc1ccccc1)*

Columns and labels:
SALL4 = biological target: T1, SALL4 (Homo sapiens, UniProt Q96SW2+Q9UJQ4); experiment: SALL4 protein level in human iPS cells, immunoblot; format: cell-based; conditions: human iPS cells; 1 μM MLN4924 or 10 μM MG132 for 6 hours with thalidomide
T1 construct: host or cells: human iPS cells (CRBN wild-type and CRBN knock-out)
T1 sequence (Q9UJQ4 whole entry): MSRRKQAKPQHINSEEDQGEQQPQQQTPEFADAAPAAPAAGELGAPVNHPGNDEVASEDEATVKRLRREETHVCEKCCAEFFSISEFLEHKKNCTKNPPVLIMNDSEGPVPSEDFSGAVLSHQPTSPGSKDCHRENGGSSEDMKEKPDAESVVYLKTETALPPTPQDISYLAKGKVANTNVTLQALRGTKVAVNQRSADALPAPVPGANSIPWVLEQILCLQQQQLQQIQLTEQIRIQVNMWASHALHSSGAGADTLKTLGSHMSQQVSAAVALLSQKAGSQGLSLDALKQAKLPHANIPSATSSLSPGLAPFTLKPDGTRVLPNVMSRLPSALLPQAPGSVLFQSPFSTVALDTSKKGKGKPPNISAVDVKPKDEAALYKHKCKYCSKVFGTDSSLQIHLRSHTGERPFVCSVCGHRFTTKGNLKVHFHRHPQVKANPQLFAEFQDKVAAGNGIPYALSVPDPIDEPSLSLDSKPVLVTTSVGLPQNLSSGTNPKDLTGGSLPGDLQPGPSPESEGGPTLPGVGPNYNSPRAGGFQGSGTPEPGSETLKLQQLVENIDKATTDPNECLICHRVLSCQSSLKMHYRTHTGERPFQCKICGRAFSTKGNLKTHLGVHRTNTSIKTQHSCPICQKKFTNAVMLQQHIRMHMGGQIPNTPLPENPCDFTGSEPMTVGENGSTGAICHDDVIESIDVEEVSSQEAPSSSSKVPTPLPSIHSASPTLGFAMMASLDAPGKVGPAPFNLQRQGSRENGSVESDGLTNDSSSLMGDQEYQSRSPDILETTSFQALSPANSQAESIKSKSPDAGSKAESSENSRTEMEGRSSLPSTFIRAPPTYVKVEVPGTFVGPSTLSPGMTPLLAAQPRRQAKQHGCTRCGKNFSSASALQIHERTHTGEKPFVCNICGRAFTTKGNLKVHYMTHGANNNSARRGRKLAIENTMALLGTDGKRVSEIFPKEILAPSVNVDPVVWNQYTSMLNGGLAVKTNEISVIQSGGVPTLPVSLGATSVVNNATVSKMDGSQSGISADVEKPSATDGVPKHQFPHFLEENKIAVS
T1 sequence (Q96SW2 whole entry): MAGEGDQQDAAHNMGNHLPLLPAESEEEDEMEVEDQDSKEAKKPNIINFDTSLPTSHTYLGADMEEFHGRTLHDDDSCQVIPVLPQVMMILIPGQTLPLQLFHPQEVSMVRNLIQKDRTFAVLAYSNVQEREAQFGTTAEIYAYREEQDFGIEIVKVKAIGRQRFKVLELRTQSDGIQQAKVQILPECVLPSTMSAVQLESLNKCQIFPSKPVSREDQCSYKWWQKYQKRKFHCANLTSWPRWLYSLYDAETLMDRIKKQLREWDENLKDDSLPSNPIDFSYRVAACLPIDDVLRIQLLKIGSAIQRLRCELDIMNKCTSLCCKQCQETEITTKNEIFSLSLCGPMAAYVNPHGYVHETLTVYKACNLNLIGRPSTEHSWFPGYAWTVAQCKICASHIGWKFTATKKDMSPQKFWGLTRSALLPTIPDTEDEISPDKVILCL
T1 sequence (Q16531 whole entry partner): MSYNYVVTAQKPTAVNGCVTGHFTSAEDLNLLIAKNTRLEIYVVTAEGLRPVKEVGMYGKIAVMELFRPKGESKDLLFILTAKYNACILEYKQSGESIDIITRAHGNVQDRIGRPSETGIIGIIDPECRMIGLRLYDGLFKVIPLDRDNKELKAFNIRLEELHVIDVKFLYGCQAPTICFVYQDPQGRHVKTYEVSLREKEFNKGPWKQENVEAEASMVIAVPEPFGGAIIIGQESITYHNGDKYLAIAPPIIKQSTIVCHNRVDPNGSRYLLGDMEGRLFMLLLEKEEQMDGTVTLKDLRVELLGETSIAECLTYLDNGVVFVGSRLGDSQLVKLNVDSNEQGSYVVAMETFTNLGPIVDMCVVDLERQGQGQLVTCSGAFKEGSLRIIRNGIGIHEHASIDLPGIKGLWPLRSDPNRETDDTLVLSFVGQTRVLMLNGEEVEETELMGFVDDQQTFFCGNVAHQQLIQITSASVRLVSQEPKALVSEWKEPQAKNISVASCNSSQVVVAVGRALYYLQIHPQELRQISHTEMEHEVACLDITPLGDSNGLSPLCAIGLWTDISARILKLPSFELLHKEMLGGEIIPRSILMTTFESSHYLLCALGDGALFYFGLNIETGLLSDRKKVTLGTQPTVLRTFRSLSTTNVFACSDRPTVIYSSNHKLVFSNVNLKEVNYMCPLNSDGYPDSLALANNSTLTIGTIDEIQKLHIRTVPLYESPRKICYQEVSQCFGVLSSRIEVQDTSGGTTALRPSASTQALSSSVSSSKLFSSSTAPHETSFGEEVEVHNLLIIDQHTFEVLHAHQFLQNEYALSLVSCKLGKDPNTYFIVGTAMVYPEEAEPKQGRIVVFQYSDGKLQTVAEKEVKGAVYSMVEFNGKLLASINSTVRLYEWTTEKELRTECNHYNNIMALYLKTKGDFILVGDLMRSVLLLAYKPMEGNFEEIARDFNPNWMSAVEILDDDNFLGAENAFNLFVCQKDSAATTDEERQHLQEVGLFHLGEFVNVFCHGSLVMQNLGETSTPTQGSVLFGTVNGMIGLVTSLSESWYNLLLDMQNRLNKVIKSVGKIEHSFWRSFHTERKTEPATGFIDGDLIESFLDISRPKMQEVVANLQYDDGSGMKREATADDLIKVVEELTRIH
Description: Immunoblot analysis of whole cell lysates of CRBN wild-type (WT) and CRBN knock-out (−/−) human iPS cells was performed. Cells were treated with DMSO vehicle control (−) or thalidomide (Thal) at indicated concentrations for 16 hours (n=4, biological replicates).
Immunoblot analysis of whole cell lysates of human iPS cells treated with DMSO (−) or Thal (+) in the presence or absence of 1 μM MLN4924 or 10 μM MG132 for 6 hours were performed (n=2, biological replicates).
Human iPS cell lines ACS-1019 and ACS-1011 (derived from healthy donors) were obtained from ATCC. The hiPSCs were maintained in mTESR-1 medium (Stem Cell Technologies) in cell culture plates coated with a thin layer of Matrigel (BD Biosciences) incubated at 37° C. in a humidified 5% CO2 incubator according to the manufacturer's instruction. Cells were split through mechanic passaging with a glass pipet and enzymatically digestion with Dispase or Accutase every 2 to 3 days.
Human iPSCs, ACS-1019 was transduced with lentiviral vectors expressing CRISPR-Cas9 and small guide RNA targeting cereblon for 4 days. The resulting colonies were amplified and screened for cereblon knockout by immunoblot analysis with anti-CRBN65 antibody (Celgene).

[1] = test system: SALL4 binding to cereblon; format: cell-based, human
Description: Binding of full length SALL4 to cereblon in cells was then tested by co-immunoprecipitation (see FIG. 3). HA-tagged WT, G416A, or G600A SALL4 was immunoprecipitated from cells, and the level of co-purifying cereblon was assessed by western blot. Briefly, a Lenti-x 293 cell line with a CRISPR-cas9 knock-out of cereblon and stable expression of HA-tagged SALL4 or SALL4 mutants was transfected with either GST-cereblon or empty vector. […] The amount of co-purifying GST-cereblon was then assessed by western blot.

ZFP91 = biological target: T2, ZFP91 (Homo sapiens, UniProt Q96JP5+Q96SW2); experiment: Degradation of ZFP91 in Lenti-x 293 cells (control substrate); format: cell-based; conditions: Lenti-x 293 cell lines expressing cereblon
T2 construct: endogenous in cells; host or cells: Lenti-x 293 cell line with CRISPR-cas9 cereblon knock-out, transfected with GST-cereblon
T2 sequence (Q96JP5 2-570 limits assumed): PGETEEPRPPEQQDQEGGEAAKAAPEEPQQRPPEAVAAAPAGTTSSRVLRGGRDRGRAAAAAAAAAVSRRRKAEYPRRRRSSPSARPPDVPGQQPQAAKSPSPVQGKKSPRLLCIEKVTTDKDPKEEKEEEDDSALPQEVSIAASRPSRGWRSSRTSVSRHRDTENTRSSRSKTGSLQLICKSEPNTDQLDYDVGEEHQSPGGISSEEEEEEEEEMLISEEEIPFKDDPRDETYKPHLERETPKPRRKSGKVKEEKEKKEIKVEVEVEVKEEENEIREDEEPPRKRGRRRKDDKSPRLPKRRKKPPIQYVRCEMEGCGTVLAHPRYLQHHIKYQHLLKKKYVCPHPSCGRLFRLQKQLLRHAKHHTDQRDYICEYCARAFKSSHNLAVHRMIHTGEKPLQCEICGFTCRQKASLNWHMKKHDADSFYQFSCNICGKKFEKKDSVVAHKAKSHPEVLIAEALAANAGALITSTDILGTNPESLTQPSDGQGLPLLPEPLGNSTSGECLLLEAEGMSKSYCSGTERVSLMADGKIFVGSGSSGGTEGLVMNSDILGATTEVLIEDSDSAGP
T2 sequence (Q96SW2 whole entry): as the sequence (Q96SW2 whole entry) above
T2 sequence (Q16531 whole entry partner): as the sequence (Q16531 whole entry partner) above

[2] = biological target: T3, endogenous SALL4 in NCCIT, NETRA-2 c1.D1 and AN3-CA cancer cell lines (Homo sapiens, UniProt Q96SW2+Q9UJQ4); experiment: Degradation of endogenous SALL4 in cancer cell lines, western blot; format: cell-based; conditions: 16 hour treatment; anti-SALL4 western blot
T3 construct: endogenous in cells; host or cells: NCCIT, NETRA-2 c1.D1 and AN3-CA cancer cell lines

Row | Structure (SMILES) | Effect on thalidomide-induced reduction in SALL4 protein levels (SALL4) | Binding of G416A SALL4 to cereblon ([1]; HA-tagged G416A SALL4, anti-HA pull-down) | Binding of G600A SALL4 to cereblon ([1]; HA-tagged G600A SALL4, anti-HA pull-down) | Binding of WT SALL4 to cereblon (co-purifying GST-cereblon, western blot) ([1]; HA-tagged WT SALL4, anti-HA pull-down) | ZFP91 degradation (ZFP91) | Degradation of endogenous SALL4 [2]
1 | CC(C)C[C@@H](C=O)NC(=O)[C@H](CC(C)C)NC(=O)[C@H](CC(C)C)NC(=O)OCc1ccccc1 [MG132] (Cbz-Leu-Leu-Leu-aldehyde) | prevented | – | – | – | – | –
2 | Nc1cccc2c1C(=O)N(C1CCC(=O)NC1=O)C2=O (stereo not shown) [pomalidomide] | – | disrupted the binding significantly | strong, compound-dependent binding to cereblon | strong, compound-dependent binding to cereblon | exhibited compound-dependent degradation in all cell lines expressing cereblon | Significant compound-dependent degradation of endogenous SALL4 was observed
3 | NS(=O)(=O)OC[C@@H]1C[C@@H](n2ccc3c(N[C@H]4CCc5ccccc54)ncnc32)C[C@@H]1O [MLN4924] | prevented | – | – | – | – | –
